Reference: patent US10213451B2, “Methods and compounds for modulating the secretion or expression of adhesion proteins or angiopoietins of cells” (PACIFIC ARROW LIMITED, priority 2004, dated 2019)
In brackets after ≈: the same amount, converted by molar mass.

Tested on: ES2(ovarian) cells
Assay: MTT assay ES2
Format: cell-based, human
Method: MTT Assay. The procedure for MTT assay followed the method described by Carmichael et al. (1987) with modifications. The cells were seeded into a 96-well plate at concentration of 10,000/well for HTB-9, HeLa, H460, HCT116, T98G and OVCAR-3), 15,000/well for DU145, MCF-7, HepG2 and U2OS), and 40,000/well for K562 for 24 hours before drug-treatment. The cells were then exposed to the drugs for 48 hours (72 hours for HepG2 and U2OS, and 96 hours for MCF-7). After the drug-treatment, MTT (0.5 mg/mL) was added to cultures and incubated for an hour. The formazan (product of the reduction of tetrazolium by viable cells) formed and was dissolved with DMSO and the O.D. at 490 nm, and was measured by an ELISA reader. The MTT level of the cells before drug-treatment was also measured (T0). The % cell-growth (% G) is calculated as: % G=(TD−T0/TC−T0)×100(1), where TC or TD represents O.D. readings of control or drug-treated cells. When T0>TD, then the cytotoxicity (LC) expressed as % of the control is calculated as: % LC=(TD−T0/T0)×100(2).
Methods: ES2 cells were exposed to (i) Xanifolia-Y with concentrations of 40, 20, 10, 5, 2.5, and 1.25 ug/ml; or (ii) Paclitaxel with concentrations of […]; or (iii) Combined Xanifolia-Y and Paclitaxel with concentrations of each drug in same order (for example, 40 ug/ml Y plus 10 ng/ml T; 20 ug/ml Y plus 5 ng/ml T, etc. please see FIG. 28). Cells growth under these conditions was determined by the MTT assay.
Drug-treatment: cells cultures were replaced with fresh RPMI medium containing Xanifolia-Y (10 ug/ml final concentration) or DMSO (as control) at 0 hour. At 2, and 18 hour, aliquot of culture medium was taken out for Fibronectin determination (Western blot method). Cell viability at 18 hours was determined by MTT assay. Cultures were replaced with RPMI medium with MTT and incubated for an hour. The formation of formazan was dissolved in DMSO and OD at 570 nm was measured.

SMILES	IC50 (ES2 cells)	IC50 (Homo sapiens, ES-2)
C/C=C(/C)C(=O)O[C@H]1[C@H](OC(=O)c2ccccc2)[C@@]2(CO)C(CC1(C)C)C1=CCC3[C@@]4(C)CC[C@H](O)C(C)(C)C4CC[C@@]3(C)[C@]1(C)[C@@H](O)[C@H]2O (stereo partly shown) [ACH-Z4]	40 µg/mL (≈ 57.7 µM)	
CC(C)C(=O)OC1C(OC(=O)c2ccccc2)C(C)(C)CC2C3=CCC4C5(C)CCC(OC6OC(C(=O)O)C(O)C(OC7OCC(O)C(O)C7O)C6OC6OC(CO)C(O)C(O)C6O)C(C)(C)C5CCC4(C)C3(C)CC(O)C21CO [Ba7, 3-O-[β-D-galactopyranosyl(1→2)]-β-D-xylopyranosyl (1→3)-β-D-glucuronopyranosyl-21-O-benzoyl, 22-O-isobutyryl-3β, 15α, 21β, 22α, 28-pentahydroxyolean-12-ene]	11 µg/mL (≈ 9.69 µM)	
CC=C(C)C(=O)OC1C(OC(=O)C(C)=CC)C2(CO)C(CC1(C)C)C1=CCC3C4(C)CCC(O)C(C)(CO)C4CCC3(C)C1(C)C(O)C2O (stereo not shown) [ACH-Y2]	35 µg/mL (≈ 51 µM)	
CC1O[C@@H](OC2[C@H](OC3[C@H](O[C@H]4C(O[C@@H]5OC(CO)[C@H](O)[C@@H](O)C5O)[C@H](O[C@H]5CC[C@@]6(C)C(CC[C@]7(C)C6CC[C@]68O[C@H](O)[C@]9(C6CC(C)(C)[C@@H](OC(=O)c6ccccc6)[C@@H]9OC(=O)C=Cc6ccccc6)[C@H](O)[C@H](O)[C@]87C)[C@@]5(C)CO)OC(C(=O)O)[C@H]4O)OC(CO)[C@H](O)[C@H]3O)OC(C)[C@H](O)[C@@H]2O)C(O)[C@@H](O)[C@H]1O (stereo partly shown) [Mb8]	20 µg/mL (≈ 12.8 µM)	
CC=C(C)C(=O)OC1C(OC(=O)C=Cc2ccccc2)C23C(O)CC4(C)C5(C)CCC6C(C)(C)C(OC7OC(C(=O)O)C(O)C(OC8OC(CO)C(O)C(O)C8OC8OC(C)C(O)C(O)C8OC8OC(C)C(O)C(O)C8O)C7OC7OC(CO)C(O)C(O)C7O)CCC6(C)C5CCC4(OC2O)C3CC1(C)C (stereo not shown) [Mb1]	8 µg/mL (≈ 5.29 µM)	
CC1(C)CC2C3=CCC4C5(C)CCC(OC6OC(C(=O)O)C(O)C(OC7OCC(O)C(O)C7O)C6OC6OC(CO)C(O)C(O)C6O)C(C)(C)C5CCC4(C)C3(C)CC(O)C2(CO)C(O)C1OC(=O)c1ccccc1 [Ba8, 3-O-[β-D-galactopyranosyl(1→2)]-β-D-xylopyranosyl (1→3)-β-D-glucuronopyranosyl-21-O-benzoyl-3β, 15α, 21β, 22α, 28-pentahydroxyolean-12-ene]	20 µg/mL (≈ 18.8 µM)	
CC1OC(OC2C(OC3C(OC4C(O)C(C(=O)O)OC(OC5CCC6(C)C(CCC7(C)C6CCC68OC(O)C9(C(O)CC76C)C(OC(=O)C=Cc6ccccc6)C(OC(=O)c6ccccc6)C(C)(C)CC98)C5(C)C)C4OC4OC(CO)C(O)C(O)C4O)OC(CO)C(O)C3O)OC(C)C(O)C2O)C(O)C(O)C1O (stereo not shown) [Mb4]	15 µg/mL (≈ 9.78 µM)	
C/C=C(/C)C(=O)O[C@H]1[C@H](OC(=O)/C(C)=C/C)[C@@]2(CO)C(CC1(C)C)C1=CCC3[C@@]4(C)CC[C@H](O[C@@H]5OC(C(=O)O)[C@@H](O)C(O[C@@H]6OC[C@@H](O)C(O)C6O)C5O[C@@H]5OC(CO)[C@H](O)C(O)C5O)C(C)(C)C4CC[C@@]3(C)[C@]1(C)C[C@H]2O (stereo partly drawn) [Xanifolia Z12, 3-O-[β-D-galactopyranosyl(1→2)]-β-D-xylopyranosyl (1→3)-β-D-glucuronopyranosyl-21-O-angeloyl, 22-O-tigloyl-3β, 16α, 21β, 22α, 28-pentahydroxyolean-12-ene]		16 µg/mL (≈ 14.2 µM)
CC1OC(OC2C(OC3C(OC4C(O)C(C(=O)O)OC(OC5CCC6(C)C(CCC7(C)C6CCC68OC(O)C9(C(O)CC76C)C(OC(=O)C=Cc6ccccc6)C(OC(=O)c6ccccc6)C(C)(C)CC98)C5(C)C)C4OC4OC(CO)C(O)C(O)C4O)OC(CO)C(O)C3O)OC(C)C(O)C2O)C(O)C(O)C1O (stereo not shown) [Mb3]	8 µg/mL (≈ 5.22 µM)	
C/C=C(/C)C(=O)O[C@H]1[C@H](OC(=O)C(C)C)[C@@]2(CO)C(CC1(C)C)C1=CCC3[C@@]4(C)CC[C@H](O)C(C)(C)C4CC[C@@]3(C)[C@]1(C)[C@@H](O)[C@H]2O (stereo partly shown) [ACH-Y0]	20 µg/mL (≈ 30.4 µM)	
CC1(C)CC2C3=CCC4C5(C)CCC(OC6OC(C(=O)O)C(O)C(OC7OCC(O)C(O)C7O)C6OC6OC(CO)C(O)C(O)C6O)C(C)(C)C5CCC4(C)C3(C)CC(O)C2(CO)C(OC(=O)c2ccccc2)C1OC(=O)c1ccccc1 [Ba5, 3-O-[β-D-galactopyranosyl(1→2)]-β-D-xylopyranosyl (1→3)-β-D-glucuronopyranosyl-21-O-benzoyl, 22-O-benzoyl-3β, 15α, 21β, 22α, 28-pentahydroxyolean-12-ene]	16 µg/mL (≈ 13.7 µM)	
CC1(C)CC2C3=CCC4C5(C)CCC(OC6OC(C(=O)O)C(O)C(OC7OCC(O)C(O)C7O)C6OC6OC(CO)C(O)C(O)C6O)C(C)(C)C5CCC4(C)C3(C)CC(O)C2(CO)C(O)C1OC1OCC(OC(=O)c2ccccc2)C(OC(=O)c2ccccc2)C1O [Ba9, 3-O-[β-D-galactopyranosyl(1→2)]-β-D-xylopyranosyl (1→3)-β-D-glucuronopyranosyl-21-O-[3,4-dibenzoyl-β-D-xylopyranosyl]-3β, 15α, 21β, 22α, 28-pentahydroxyolean-12-ene]	12 µg/mL (≈ 9.22 µM)	
C/C=C(/C)C(=O)O[C@H]1[C@H](OC(=O)/C(C)=C\C)[C@@]2(CO)C(CC1(C)C)C1=CCC3[C@@]4(C)CC[C@H](O)C(C)(C)C4CC[C@@]3(C)[C@]1(C)C[C@H]2O (stereo partly shown) [ACH-Y10]	20 µg/mL (≈ 30.5 µM)	
CC=C(C)C(=O)OC1C(OC(=O)c2ccccc2)C(C)(C)CC2C3=CCC4C5(C)CCC(OC6OC(C(=O)O)C(O)C(OC7OCC(O)C(O)C7O)C6OC6OC(CO)C(O)C(O)C6O)C(C)(C)C5CCC4(C)C3(C)CC(O)C21CO [Ba3, 3-O-[β-D-galactopyranosyl(1→2)]-β-D-xylopyranosyl (1→3)-β-D-glucuronopyranosyl-21-O-benzoyl, 22-O-angeloyl-3β, 15α, 21β, 22α, 28-pentahydroxyolean-12-ene]	8 µg/mL (≈ 6.97 µM)	
C/C=C(/C)C(=O)O[C@H]1[C@H](O)[C@@]2(COC(=O)C(C)CC)C(CC1(C)C)C1=CCC3[C@@]4(C)CC[C@H](O)C(C)(C)C4CC[C@@]3(C)[C@]1(C)[C@@H](O)[C@H]2O (stereo partly shown) [ACH-Y7]	65 µg/mL (≈ 96.6 µM)	
CC=C(C)C(=O)OC1C(OC(=O)C(C)=CC)C2(CO)C(O)CC3(C)C(=CCC4C5(C)CCC(O)C(C)(CO)C5CCC43C)C2CC1(C)C (stereo not shown) [ACH-Y8]	35 µg/mL (≈ 52.2 µM)	
CC=C(C)C(=O)OC1C(OC(=O)c2ccccc2)C(C)(C)CC2C13C(O)CC1(C)C4(C)CCC5C(C)(C)C(OC6OC(C(=O)O)C(O)C(OC7OC(CO)C(O)C(O)C7OC7OC(C)C(O)C(O)C7OC7OC(C)C(O)C(O)C7O)C6OC6OC(CO)C(O)C(O)C6O)CCC5(C)C4CCC21OC3O (stereo not shown) [Mb6]	10 µg/mL (≈ 6.73 µM)	
C/C=C(/C)C(=O)O[C@H]1[C@H](OC(C)=O)C(C)(C)CC2C3=CCC4[C@@]5(C)CC[C@H](O)C(C)(C)C5CC[C@@]4(C)[C@]3(C)C[C@@H](O)[C@]21CO (stereo partly shown) [ACH-X]	40 µg/mL (≈ 65.1 µM)	
CC=C(C)C(=O)OC1C(OC(=O)c2ccccc2)C2(CO)C(CC1(C)C)C1=CCC3C4(C)CCC(OC5OC(C(=O)O)C(O)C(OC6OC(CO)C(O)C6O)C5OC5OC(CO)C(O)C(O)C5O)C(C)(C)C4CCC3(C)C1(C)C(O)C2O [Xanifolia Z4, 3-O-[β-D-galactopyranosyl(1→2)]-α-L-arabinofuranosyl(1→3)-β-D-glucuronopyranosyl-21-O-angeloyl, 22-O-benzoyl-3β, 15α, 16α, 21β, 22α, 28-hexahydroxyolean-12-ene]	20 µg/mL (≈ 17.2 µM)	
